Measured values published in ChEMBL document CHEMBL1201862, “PubChem BioAssay data set” (2004).
Activity calls are given as the source filed them.

Tests used:
[1] = target: T1, Replicative DNA helicase DnaB (Mycobacterium tuberculosis, UniProt P9WMR3); assay: DnaB intein splicing inhibitors, dose response, biochemical, cell-free fluorescence (AID 449749); format: functional
T1 sequence (P9WMR3 whole entry): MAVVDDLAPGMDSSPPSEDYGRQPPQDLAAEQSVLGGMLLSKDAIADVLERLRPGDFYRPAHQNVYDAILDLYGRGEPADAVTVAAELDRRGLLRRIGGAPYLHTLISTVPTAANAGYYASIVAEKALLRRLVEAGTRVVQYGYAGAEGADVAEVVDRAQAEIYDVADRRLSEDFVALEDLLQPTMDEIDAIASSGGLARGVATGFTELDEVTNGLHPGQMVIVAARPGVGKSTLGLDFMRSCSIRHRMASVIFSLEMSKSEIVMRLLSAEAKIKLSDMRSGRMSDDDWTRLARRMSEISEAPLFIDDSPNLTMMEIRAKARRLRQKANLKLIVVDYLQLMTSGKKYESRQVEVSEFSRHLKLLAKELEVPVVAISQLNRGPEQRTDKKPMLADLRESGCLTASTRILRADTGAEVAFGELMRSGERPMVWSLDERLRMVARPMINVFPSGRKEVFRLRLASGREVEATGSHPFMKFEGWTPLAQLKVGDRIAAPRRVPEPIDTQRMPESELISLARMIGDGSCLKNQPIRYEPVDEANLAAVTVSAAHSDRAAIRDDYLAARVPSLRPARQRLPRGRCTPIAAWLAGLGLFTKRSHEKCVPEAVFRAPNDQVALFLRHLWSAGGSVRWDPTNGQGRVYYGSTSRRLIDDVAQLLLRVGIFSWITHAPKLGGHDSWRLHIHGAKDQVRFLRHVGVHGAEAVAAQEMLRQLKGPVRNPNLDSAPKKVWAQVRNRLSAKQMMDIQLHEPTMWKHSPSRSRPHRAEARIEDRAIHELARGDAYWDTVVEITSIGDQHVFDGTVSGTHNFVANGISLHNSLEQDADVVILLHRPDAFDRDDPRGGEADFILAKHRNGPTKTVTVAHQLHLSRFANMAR

[2] = target: T2, Sentrin-specific protease 8 (Homo sapiens, UniProt Q96LD8); format: functional
T2 sequence (Q96LD8 whole entry): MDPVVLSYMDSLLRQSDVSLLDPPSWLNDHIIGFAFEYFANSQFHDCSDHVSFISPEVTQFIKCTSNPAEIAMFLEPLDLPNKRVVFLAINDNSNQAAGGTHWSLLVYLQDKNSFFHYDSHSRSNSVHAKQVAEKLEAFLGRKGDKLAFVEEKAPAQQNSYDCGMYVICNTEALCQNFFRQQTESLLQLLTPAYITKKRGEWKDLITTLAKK

[3] = target: T2, Sentrin-specific protease 8; format: functional; remark: listed apart in the source
Protein RecA = target: T3, Protein RecA (Mycobacterium tuberculosis, UniProt P9WHJ3); assay: Fluorescence Cell-Free Homogeneous Dose Retest to Identify Inhibitors of RecA-Intein Splicing Activity. [Related pubchem assays (depositor defined):AID2097, AID2223, AID489010, AID492950]; format: functional
T3 sequence (P9WHJ3 whole entry): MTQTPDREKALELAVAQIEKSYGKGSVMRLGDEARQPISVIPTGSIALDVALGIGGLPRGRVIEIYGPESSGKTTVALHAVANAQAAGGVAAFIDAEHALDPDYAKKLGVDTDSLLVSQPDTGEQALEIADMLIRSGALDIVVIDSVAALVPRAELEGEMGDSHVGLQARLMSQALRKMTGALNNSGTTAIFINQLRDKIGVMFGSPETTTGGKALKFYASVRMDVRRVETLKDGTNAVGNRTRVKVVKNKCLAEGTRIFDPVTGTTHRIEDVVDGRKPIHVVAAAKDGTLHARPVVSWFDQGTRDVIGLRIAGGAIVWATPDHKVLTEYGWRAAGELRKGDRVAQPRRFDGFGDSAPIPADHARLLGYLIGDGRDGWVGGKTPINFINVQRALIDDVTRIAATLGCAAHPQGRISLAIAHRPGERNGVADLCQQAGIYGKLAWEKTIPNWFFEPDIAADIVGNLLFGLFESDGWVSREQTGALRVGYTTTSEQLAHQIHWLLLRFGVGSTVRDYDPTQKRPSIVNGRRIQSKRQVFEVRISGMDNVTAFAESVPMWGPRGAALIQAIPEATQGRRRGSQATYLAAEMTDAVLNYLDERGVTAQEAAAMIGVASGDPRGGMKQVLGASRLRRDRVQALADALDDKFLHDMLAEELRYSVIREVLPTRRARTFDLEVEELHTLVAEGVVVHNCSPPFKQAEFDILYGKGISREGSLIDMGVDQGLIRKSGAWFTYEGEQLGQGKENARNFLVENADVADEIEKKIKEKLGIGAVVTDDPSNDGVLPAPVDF

Nonstructural protein 1 = Nonstructural protein 1 (Influenza A virus, UniProt Q194T2); format: functional, Influenza A virus (A/California/07/2009(H1N1))
cells [4] = format: functional, cell-based
cells [5] = format: functional, cell-based; remark: listed apart in the source
[6] = target: Sentrin-specific protease 1 (Homo sapiens, UniProt Q9P0U3); assay: Dose response confirmation of small molecule inhibitors of the catalytic domain of the SUMO protease, SENP1 in a FRET assay.; format: functional; details: read-out: IC50_Mean
[7] = microbe, parasite or virus in culture; format: functional; details: Mycobacterium tuberculosis
[8] = growth suppression of beta-catenin-knockout colon cells, dose response, cell-based, HCT116, human colon tumor (AID 1045); format: functional;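 note: HCT116 colon tumor cells with beta catenin knocked out; cells exposed to compound for 60 hours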
[9] = Luminescent dose response cell-based high throughput screening assay for inhibitors of the Janus kinase 2 mutant JAK2V617F. [Related pubchem assays: 1446 (Primary screen.), 1521 (Confirmation assay.), 1486 (Counter screen.)]; format: functional
[10] = growth suppression of PTEN-null colon cells, dose response, cell-based, HCT116 PTEN knockout (AID 1047); format: functional;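 note: HCT116 colon tumor cells with PTEN knocked out; cells exposed to compound for 60 hours before readout; potency for loss of cell viability measured by luminescence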
[11] = HEK293T cytotoxicity, dose response, cytotoxicity control for miR-122 modulator project, cell-based, inhibitor set, cherry-pick, set 2 (AID 720697); format: functional
[12] = HEK293T cytotoxicity, dose response, cytotoxicity control for miR-122 modulator project, cell-based, activator set, cherry-pick (AID 720690); format: functional;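 note: HEK293T human cells scored for general mammalian cytotoxicity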
[13] = miR-122 activators in hepatoma reporter cells, dose response, cell-based, Huh7 psiCHECK-miR122, Renilla luciferase, cherry-picked (AID 651956); format: functional;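 note: huh7 hepatoma cells stably carrying a psiCHECK-2 miR-122 sensor plasmid; renilla luciferase signal reporting endogenous miR-122 activity after 48 h compound exposure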
Cytochrome P450 1A2 = target: T4, Cytochrome P450 1A2 (Homo sapiens, UniProt P05177);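 note: PubChem cytochrome P450 panel assay, CYP1A2 panel member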
T4 sequence (P05177 whole entry): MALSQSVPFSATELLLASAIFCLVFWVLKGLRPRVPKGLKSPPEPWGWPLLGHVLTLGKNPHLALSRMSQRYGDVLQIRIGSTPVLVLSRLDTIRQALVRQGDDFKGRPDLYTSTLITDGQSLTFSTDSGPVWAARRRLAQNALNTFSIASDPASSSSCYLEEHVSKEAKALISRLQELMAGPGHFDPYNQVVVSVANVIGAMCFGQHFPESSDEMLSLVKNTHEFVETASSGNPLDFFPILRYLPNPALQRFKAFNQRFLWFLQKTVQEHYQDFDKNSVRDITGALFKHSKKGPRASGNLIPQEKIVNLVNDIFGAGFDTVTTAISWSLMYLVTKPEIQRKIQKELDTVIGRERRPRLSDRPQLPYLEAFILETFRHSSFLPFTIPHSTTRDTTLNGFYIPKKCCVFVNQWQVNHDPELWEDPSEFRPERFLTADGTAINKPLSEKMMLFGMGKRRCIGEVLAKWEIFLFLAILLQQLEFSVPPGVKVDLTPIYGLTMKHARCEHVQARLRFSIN

Cytochrome P450 3A4 = Cytochrome P450 3A4 (Homo sapiens, UniProt P08684);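 note: CYP3A4 tested as one member of a cytochrome P450 panel screen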
[14] = target: T5, Kappa-type opioid receptor (Homo sapiens, UniProt P41145); format: functional
Mu-type opioid receptor = Mu-type opioid receptor (Homo sapiens, UniProt P35372); assay: HTS Image-Based Screen for Agonists of the MOR Receptor. [Related pubchem assays (depositor defined):AID1777, AID1785, AID1786, AID2133]; format: functional;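 note: imaging of beta-arrestin GFP recruitment into spots after receptor activation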
[15] = target: T6, Delta-type opioid receptor (Homo sapiens, UniProt P41143); assay: HTS Image-Based Screen for Antagonists of the DOR Receptor. [Related pubchem assays (depositor defined):AID1777, AID1785, AID1786, AID2133]; format: functional
Beta-galactosidase [16] = target: T7, Beta-galactosidase (Escherichia coli, UniProt Q8VNN2); assay: PubChem AID 485352; format: functional
Vero = Vero cell cytotoxicity, cytotoxicity control for flavivirus capping enzyme inhibitors (AID 588742); format: functional; details: Chlorocebus sabaeus
Beta Lactamase [17] = target: T8, Beta Lactamase (Pseudomonas aeruginosa, UniProt Q932Y6); assay: beta-lactamase reporter inhibitor potency, dose response, artefact control for NOD2-RIPK2 interaction inhibitor project, BLA reporter cells, FRET fluorescence (AID 651552); format: functional, cell-based
[18] = target: T9, Type-1 angiotensin II receptor (Homo sapiens, UniProt P30556); assay: AT1 receptor antagonists, dose response, selectivity assay for APJ receptor antagonist project, cell-based, uHTS hits (AID 463214); format: functional;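 note: antagonist potency against angiotensin II stimulated AT1 response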
T9 sequence (P30556 whole entry): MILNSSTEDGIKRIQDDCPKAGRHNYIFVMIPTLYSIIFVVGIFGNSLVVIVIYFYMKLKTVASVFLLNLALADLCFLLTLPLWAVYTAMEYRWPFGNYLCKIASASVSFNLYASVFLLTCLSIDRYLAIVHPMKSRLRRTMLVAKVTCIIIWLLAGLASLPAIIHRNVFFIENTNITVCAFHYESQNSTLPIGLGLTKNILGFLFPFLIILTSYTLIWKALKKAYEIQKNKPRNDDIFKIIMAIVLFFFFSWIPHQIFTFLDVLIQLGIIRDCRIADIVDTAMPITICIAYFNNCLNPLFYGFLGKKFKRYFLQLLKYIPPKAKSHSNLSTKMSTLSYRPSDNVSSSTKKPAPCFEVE

Genome polyprotein = Genome polyprotein (dengue virus type 2, UniProt P29990); assay: Dengue-2 NS5 methyltransferase inhibitors, primary screen, biochemical, confirmation dose response (AID 588689); format: functional
Beta Lactamase [19] = target: T8, Beta Lactamase; assay: beta-lactamase reporter inhibitor potency, dose response, artefact control for TLR9-MyD88 binding inhibitor project, BLA reporter cells, FRET fluorescence (AID 588341); format: cell-based;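 note: cell based assay in CHO-K1 cells stably expressing beta-lactamase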
Beta-galactosidase [20] = target: T7, Beta-galactosidase; format: functional
[21] = target: Glucose-6-phosphate 1-dehydrogenase (Homo sapiens, UniProt P11413); assay: human G6PD enzyme inhibitors, dose response, selectivity assay for P. falciparum G6PD inhibitor project, biochemical, fluorescence (AID 504792); format: functional
[22] = target: T5, Kappa-type opioid receptor; format: functional; remark: listed apart in the source
[23] = Fluorescence-based cell-based high throughput dose response assay for inhibitors of the interaction of nucleotide-binding oligomerization domain containing 2 (NOD2) and the receptor-interacting serine-threonine kinase 2 (RIPK2).; format: functional; details: Homo sapiens
[24] = target: T6, Delta-type opioid receptor; assay: HTS Image-Based Screen for Agonists of the DOR Receptor. [Related pubchem assays (depositor defined):AID1777, AID1786, AID2133]; format: functional
CHO = assay: cytotoxicity in TLR9-MyD88 CHO cells, dose response, cytotoxicity control for TLR9-MyD88 binding inhibitor project, cell-based, luminescence (AID 588339); format: functional, hamster; details: Cricetulus griseus;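 note: CHO cells stably coexpressing TLR9 and MyD88 fusions from primary screen; compound exposure lasted 48 hours before viability readout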
[25] = NIH/3T3 fibroblast cytotoxicity, dose response, cytotoxicity control for T. cruzi growth inhibitor project, cell-based, cherry-pick samples, set 2 (AID 651817); format: functional; details: NIH3T3
[26] = ARNT/TACC3 interaction disruptors, potency, confirmation, biochemical, AlphaScreen, cherry-picked samples (AID 651703); format: functional, Homo sapiens;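 note: His-tagged ARNT PAS-B domain paired with GST-TACC3 E629A dimer coactivator fragment; potency of inhibitors that break up the complex and lower AlphaScreen signal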
[27] = target: T10, Probable nicotinate-nucleotide adenylyltransferase (Staphylococcus aureus (strain N315), UniProt P65502); format: functional, Staphylococcus aureus subsp. aureus N315; details: read-out: IC50_Mean;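 for IC50 Mean: confirmatory dose-response retesting of NadD inhibitor hits first found in an ultra-high-throughput screen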
[28] = target: T10, Probable nicotinate-nucleotide adenylyltransferase; format: functional, Staphylococcus aureus subsp. aureus N315

Genome polyprotein, sequence (P29990 2492-3391 limits assumed): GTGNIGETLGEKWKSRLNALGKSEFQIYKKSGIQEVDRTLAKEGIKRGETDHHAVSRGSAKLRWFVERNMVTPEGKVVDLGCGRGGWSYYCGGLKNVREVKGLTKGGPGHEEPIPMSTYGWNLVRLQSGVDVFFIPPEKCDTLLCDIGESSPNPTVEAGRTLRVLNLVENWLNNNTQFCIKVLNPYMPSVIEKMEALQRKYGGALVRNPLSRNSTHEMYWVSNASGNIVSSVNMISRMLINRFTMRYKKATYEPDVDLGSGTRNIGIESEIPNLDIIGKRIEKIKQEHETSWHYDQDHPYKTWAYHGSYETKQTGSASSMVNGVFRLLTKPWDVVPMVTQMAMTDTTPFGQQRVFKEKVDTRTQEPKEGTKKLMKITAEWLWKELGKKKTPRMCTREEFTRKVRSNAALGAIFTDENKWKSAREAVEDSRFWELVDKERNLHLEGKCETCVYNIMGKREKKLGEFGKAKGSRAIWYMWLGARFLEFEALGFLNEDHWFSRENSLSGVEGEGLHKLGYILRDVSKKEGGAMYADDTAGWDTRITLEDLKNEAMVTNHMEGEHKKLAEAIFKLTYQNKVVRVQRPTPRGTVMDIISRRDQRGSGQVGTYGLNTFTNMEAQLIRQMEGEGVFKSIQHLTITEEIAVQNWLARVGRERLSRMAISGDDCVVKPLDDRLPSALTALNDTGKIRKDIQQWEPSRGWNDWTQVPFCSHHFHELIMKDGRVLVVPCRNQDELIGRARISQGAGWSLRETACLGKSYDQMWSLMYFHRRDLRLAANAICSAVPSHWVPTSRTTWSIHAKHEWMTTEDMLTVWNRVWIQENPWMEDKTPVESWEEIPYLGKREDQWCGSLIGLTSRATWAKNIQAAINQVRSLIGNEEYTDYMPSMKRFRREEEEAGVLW
T6 sequence (P41143 whole entry): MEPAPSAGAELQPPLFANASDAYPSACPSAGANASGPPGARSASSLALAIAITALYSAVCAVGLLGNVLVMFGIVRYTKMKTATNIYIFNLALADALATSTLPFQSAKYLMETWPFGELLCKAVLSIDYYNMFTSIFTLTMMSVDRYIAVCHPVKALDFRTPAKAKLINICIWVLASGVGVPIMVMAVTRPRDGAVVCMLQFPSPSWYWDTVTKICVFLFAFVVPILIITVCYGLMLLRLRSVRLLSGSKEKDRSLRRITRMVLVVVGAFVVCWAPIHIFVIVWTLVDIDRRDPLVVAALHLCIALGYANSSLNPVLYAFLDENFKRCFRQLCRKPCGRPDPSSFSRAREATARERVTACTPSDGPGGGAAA
T7 sequence (Q8VNN2 whole entry): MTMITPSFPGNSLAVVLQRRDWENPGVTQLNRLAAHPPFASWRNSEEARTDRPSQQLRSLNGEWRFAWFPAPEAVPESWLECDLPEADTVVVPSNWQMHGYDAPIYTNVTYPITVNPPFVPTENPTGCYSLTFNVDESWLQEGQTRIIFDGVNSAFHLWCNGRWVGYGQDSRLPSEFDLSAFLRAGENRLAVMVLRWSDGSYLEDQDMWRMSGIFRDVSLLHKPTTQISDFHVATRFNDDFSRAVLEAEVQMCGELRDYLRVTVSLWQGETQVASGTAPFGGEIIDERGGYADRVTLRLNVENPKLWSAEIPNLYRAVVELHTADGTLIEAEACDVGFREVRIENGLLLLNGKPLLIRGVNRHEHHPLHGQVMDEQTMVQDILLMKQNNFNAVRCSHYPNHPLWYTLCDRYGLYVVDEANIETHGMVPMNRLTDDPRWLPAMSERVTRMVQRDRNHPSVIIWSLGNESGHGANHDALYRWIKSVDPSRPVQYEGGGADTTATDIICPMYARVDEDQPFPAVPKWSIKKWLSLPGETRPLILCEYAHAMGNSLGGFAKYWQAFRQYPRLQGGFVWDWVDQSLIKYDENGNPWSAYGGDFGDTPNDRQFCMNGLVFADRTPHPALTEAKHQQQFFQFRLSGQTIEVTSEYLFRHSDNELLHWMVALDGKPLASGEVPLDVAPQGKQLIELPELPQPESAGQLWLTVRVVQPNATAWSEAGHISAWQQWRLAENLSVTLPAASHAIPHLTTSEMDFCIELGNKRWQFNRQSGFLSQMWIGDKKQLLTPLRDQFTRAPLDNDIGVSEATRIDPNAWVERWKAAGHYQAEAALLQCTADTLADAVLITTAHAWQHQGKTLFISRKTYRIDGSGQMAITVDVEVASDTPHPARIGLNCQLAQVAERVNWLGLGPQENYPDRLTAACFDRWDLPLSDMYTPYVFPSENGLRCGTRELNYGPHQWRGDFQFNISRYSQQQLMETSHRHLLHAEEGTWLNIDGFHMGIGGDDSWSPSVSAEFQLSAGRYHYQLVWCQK
T10 sequence (P65502 whole entry): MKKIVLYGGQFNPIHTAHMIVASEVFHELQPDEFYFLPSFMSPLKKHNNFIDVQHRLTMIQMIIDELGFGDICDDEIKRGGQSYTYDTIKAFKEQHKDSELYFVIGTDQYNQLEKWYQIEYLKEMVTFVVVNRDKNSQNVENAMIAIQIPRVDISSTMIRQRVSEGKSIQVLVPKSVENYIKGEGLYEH
T8 sequence (Q932Y6 whole entry): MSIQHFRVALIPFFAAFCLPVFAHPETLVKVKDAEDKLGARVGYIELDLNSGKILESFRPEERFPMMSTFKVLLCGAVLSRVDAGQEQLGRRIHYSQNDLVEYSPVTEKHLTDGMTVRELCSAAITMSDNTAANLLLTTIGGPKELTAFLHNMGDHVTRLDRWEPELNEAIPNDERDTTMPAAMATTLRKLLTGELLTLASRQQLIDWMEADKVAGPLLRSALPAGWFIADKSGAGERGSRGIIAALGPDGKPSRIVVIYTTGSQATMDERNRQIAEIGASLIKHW
T5 sequence (P41145 whole entry): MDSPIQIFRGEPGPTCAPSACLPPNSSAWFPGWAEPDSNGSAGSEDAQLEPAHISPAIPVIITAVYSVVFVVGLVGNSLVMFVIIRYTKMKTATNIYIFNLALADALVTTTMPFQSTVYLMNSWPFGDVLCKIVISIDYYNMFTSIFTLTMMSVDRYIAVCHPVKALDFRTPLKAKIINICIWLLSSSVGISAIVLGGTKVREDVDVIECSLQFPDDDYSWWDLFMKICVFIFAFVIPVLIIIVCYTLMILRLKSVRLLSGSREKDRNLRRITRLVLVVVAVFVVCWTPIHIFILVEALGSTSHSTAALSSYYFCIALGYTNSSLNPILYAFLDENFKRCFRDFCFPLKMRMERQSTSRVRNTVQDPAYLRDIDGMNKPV
Sentrin-specific protease 1, sequence (Q9P0U3 whole entry, the tested form may be a part): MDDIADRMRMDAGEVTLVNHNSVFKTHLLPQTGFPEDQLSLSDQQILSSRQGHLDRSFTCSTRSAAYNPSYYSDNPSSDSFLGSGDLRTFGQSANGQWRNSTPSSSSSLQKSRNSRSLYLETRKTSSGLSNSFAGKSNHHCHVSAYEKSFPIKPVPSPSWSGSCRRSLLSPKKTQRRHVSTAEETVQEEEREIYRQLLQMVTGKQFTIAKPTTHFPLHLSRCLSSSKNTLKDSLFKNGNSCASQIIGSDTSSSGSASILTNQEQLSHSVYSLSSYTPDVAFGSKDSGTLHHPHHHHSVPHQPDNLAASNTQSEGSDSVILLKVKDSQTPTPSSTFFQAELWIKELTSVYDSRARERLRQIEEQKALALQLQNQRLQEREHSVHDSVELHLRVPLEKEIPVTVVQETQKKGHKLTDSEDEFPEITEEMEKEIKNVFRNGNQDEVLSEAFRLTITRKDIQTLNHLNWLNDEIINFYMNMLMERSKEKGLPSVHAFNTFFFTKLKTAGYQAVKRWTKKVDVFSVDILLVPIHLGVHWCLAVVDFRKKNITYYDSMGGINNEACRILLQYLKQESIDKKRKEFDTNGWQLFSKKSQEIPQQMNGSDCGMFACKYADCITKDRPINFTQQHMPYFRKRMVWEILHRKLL
Cytochrome P450 3A4, sequence (P08684 whole entry): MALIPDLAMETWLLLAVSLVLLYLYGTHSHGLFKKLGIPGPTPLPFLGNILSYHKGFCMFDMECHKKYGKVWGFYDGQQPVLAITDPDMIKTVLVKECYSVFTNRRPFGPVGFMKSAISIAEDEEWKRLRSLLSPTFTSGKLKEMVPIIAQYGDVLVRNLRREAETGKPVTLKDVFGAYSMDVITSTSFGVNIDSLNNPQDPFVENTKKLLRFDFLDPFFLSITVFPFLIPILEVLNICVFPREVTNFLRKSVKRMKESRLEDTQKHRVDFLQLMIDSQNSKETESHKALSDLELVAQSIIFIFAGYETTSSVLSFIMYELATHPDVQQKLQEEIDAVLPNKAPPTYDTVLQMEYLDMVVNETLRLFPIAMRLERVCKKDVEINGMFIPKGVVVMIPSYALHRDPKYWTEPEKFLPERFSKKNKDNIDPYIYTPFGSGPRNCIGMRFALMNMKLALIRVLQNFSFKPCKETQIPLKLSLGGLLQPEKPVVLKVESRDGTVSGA
Glucose-6-phosphate 1-dehydrogenase, sequence (P11413 whole entry): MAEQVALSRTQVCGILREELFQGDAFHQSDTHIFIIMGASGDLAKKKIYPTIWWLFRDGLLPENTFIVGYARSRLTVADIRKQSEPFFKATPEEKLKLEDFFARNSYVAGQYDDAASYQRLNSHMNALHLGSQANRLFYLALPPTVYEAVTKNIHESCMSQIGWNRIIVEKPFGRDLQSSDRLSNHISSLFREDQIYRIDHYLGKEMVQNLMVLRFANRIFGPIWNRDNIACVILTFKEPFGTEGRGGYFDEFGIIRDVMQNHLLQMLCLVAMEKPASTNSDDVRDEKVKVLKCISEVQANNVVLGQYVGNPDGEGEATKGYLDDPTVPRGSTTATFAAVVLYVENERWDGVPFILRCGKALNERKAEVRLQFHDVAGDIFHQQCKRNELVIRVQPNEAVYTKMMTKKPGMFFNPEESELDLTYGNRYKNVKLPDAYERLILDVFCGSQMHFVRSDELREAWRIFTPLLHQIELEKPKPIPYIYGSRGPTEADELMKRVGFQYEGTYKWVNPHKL

CC1=NN(c2ccc(C)cc2C)C(=O)C1C(c1cccc(O)c1)C1C(=O)N(c2ccc(C)cc2C)N=C1C (stereo unspecified)
AC50 [1]: 1.09 µM (active)
IC50 [2]: 30 µM (active)
IC50 [3]: 12.6 µM (active)
EC50 (Protein RecA): 0.524 µM (active)

CCOC(=O)/C(C#N)=C/C=C1\C=Cc2ccccc2N1CC
IC50 (Nonstructural protein 1): > 100 µM (active)
EC50 (cells [4]): > 350 µM (not active)
EC50 (cells [5]): > 350 µM (not active)
IC50 [6]: 6.27 µM (active)

CCCn1c(CC)nc([N+](=O)[O-])c1S(=O)(=O)c1ccccc1
CC50 [7]: 13.1 µM (active)
EC50 [8]: 6.09 µM (active)
AC50 [1]: > 380 µM (inactive)
IC50 [9]: 0.996 µM (active)
EC50 [10]: 5.85 µM (active)
AC50 [11]: 4.03 µM (active)
AC50 [12]: 7.65 µM (active)
EC50 (Protein RecA): > 380 µM (inactive)
AC50 [13]: 24.8 µM (active)
AC50 (Cytochrome P450 1A2): 22.4 µM (inconclusive)
AC50 (Cytochrome P450 3A4): 25.1 µM (inconclusive)

CCC(=O)OCCNc1cc(Sc2nc3ccccc3s2)c2nonc2c1[N+](=O)[O-]
IC50 [14]: 8.16 µM (active)
EC50 (Mu-type opioid receptor): > 32 µM (inactive)
AC50 [1]: 2.36 µM (active)
IC50 [15]: > 32 µM (inactive)
EC50 (Beta-galactosidase [16]): > 40 µM (inactive)
CC50 (Vero): 18.5 µM (active)
IC50 (Beta Lactamase [17]): 12.2 µM (inactive)
IC50 [18]: 3.51 µM (active)
IC50 (Genome polyprotein): 29.6 µM (active)
IC50 (Beta Lactamase [19]): 10.5 µM (inactive)
EC50 (Beta-galactosidase [20]): > 31.5 µM (inactive)
IC50 [21]: > 80 µM (inactive)
IC50 [22]: > 32 µM
IC50 [23]: 1.53 µM (active)
EC50 [24]: < 0.5 µM (active)
EC50 (Protein RecA): 0.572 µM (active)
IC50 (CHO): 3.25 µM (active)

C[C@@H]1CN([C@@H](C)CO)C(=O)Cc2cc(NS(=O)(=O)c3ccc(Cl)cc3)ccc2O[C@H]1CN(C)S(=O)(=O)c1ccc(Cl)cc1
AC50 [25]: 19.4 µM (active)

O=C(O)COc1ccccc1/C=N/NC(=O)c1cc(-c2ccc(Cl)cc2)nc2ccccc12
AC50 [26]: 75.2 µM (active)
IC50 [27]: 34.2 µM (active)
IC50 [28]: 5.1 µM (active)
IC50 (Genome polyprotein): 39.5 µM (active)
